Counter-ions that a name gives are not always drawn.
Biological target: T1, human Apo(a) protein (Homo sapiens, UniProt P08519)
T1 sequence (P08519 1053-1693 limits assumed): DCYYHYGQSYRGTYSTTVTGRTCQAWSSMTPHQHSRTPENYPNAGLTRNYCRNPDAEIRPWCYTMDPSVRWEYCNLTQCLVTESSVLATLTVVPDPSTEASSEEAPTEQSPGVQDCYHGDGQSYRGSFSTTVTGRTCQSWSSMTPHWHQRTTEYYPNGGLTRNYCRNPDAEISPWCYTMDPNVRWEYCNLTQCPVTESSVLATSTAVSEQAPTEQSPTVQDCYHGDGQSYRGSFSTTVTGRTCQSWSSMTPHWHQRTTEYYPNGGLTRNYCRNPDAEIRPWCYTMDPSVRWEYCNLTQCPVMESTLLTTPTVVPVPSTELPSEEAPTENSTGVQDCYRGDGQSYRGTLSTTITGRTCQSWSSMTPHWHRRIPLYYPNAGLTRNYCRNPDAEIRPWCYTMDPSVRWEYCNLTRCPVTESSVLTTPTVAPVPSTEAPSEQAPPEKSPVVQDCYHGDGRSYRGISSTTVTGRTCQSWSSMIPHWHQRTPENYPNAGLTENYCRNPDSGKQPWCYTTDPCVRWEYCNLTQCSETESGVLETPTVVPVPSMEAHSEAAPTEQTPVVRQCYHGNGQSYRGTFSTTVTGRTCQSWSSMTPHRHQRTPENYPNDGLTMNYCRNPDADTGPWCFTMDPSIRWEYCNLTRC
Experiment: In vitro Apo(a) binding assay (competitive SPA radioligand binding)
Conditions: competitive binding vs tritium-labeled radioligand 0.52 nM; human Apo(a) containing 17 Kringle repeats; 60 min at RT
Method: The in vitro binding affinity of compounds to the intended target human Apo(a) protein were tested in a competitive binding assay. Human Apo(a) protein containing 17 Kringle repeats was affinity purified from conditioned media of transiently transfected HEK-293F cells. All reagents were prepared in assay buffer containing 50 mM Tris-HCl pH 7.4, 0.1% BSA. The binding assay was conducted by adding to each well of a clear-bottom plate 50 μL each of (1) test compound in dilution series (final concentration 0.32˜10000 nM), (2) Apo(a) protein (6 ng/well), (3) re-suspended Wheat Germ Agglutinin Polyvinyltoluene SPA beads (20 mg/mL), and (4) the radioligand, tritium-labeled (2S)-3-[3-[2-oxo-3-[3-(tritritiomethoxy)phenyl]imidazolidin-1-yl]phenyl]-2-[(3R)-pyrrolidin-3-yl]propanoic acid hydrochloride (prepared essentially as described in WO 2020/247429; final concentration 0.52 nM). Plates were incubated for 60 min at RT and counted on TRILUX LSC. Non-specific binding, defined as binding in the presence of […] cold (i.e. non-radiolabeled) ligand: (2S)-3-[3-[2-oxo-3-[3-(methoxy)phenyl]imidazolidin-1-yl]phenyl]-2-[(3R)-pyrrolidin-3-yl]propanoic acid hydrochloride (prepared essentially as described in WO 2020/247429) was subtracted to determine specific binding. Data were analyzed by fitting to a standard single site binding model and the IC50 for the Example test compound was determined. […]

Question: Which IC50 does the source give for `COc1cc(F)cc(CNc2cccc(C[C@H](C(=O)O)[C@H]3CCNC3)c2)c1` [Example 6, (2S)-3-[3-[[(3-Fluoro-5-methoxy-phenyl)methyl]amino]phenyl]-2-[(3R)-pyrrolidin-3-yl]propanoic acid;hydrochloride] here?
Answer: Its IC50 is 4.68 nM.
